From PMC117120 (BMC Biochemistry, 2002)
Positions count from the first letter of the chain named. Several values for one entry are separate records, joined by “and”; a condition that tells them apart may be missing. Identical values can stand only once.

Assays:
[1] = molecular target: T1, Y152A mutant mouse 5-HT3ASR (Mus musculus, UniProt P23979, Y153A); test: [^3H]granisetron saturation binding, Y152A receptor; settings: ± SE
T1 sequence (P23979 24-483 isoform P23979-2 Y153A): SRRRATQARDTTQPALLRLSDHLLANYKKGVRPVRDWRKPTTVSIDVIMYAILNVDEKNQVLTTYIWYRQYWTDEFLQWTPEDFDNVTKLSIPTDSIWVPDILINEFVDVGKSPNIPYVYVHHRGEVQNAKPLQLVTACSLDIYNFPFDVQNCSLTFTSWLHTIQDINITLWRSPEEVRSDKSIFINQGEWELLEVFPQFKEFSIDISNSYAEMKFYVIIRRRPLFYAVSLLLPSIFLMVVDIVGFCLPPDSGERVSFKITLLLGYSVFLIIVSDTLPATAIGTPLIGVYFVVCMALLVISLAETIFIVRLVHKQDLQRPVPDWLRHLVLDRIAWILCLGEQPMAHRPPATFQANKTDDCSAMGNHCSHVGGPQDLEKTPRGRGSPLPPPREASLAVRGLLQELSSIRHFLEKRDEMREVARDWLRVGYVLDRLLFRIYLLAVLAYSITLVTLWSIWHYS

[2] = molecular target: T2, E148A mutant mouse 5-HT3ASR (Mus musculus, UniProt P23979, E149A); test: [^3H]granisetron saturation binding, E148A receptor
T2 sequence (P23979 24-483 isoform P23979-2 E149A): T1 sequence (P23979 24-483 isoform P23979-2 Y153A) with E126A, A130Y

[3] = molecular target: T3, Y140A mutant mouse 5-HT3ASR (Mus musculus, UniProt P23979, Y141A); test: [^3H]granisetron saturation binding, Y140A receptor; settings: ± SE
T3 sequence (P23979 24-483 isoform P23979-2 Y141A): T1 sequence (P23979 24-483 isoform P23979-2 Y153A) with Y118A, A130Y

[4] = molecular target: T4, H145A mutant mouse 5-HT3ASR (Mus musculus, UniProt P23979, H146A); test: [^3H]granisetron saturation binding, H145A receptor; settings: ± SE
T4 sequence (P23979 24-483 isoform P23979-2 H146A): T1 sequence (P23979 24-483 isoform P23979-2 Y153A) with H123A, A130Y

[5] = molecular target: T5, R146A mutant mouse 5-HT3ASR (Mus musculus, UniProt P23979, R147A); test: [^3H]granisetron saturation binding, R146A receptor; settings: ± SE
T5 sequence (P23979 24-483 isoform P23979-2 R147A): T1 sequence (P23979 24-483 isoform P23979-2 Y153A) with R124A, A130Y

[6] = molecular target: T6, G147A mutant mouse 5-HT3ASR (Mus musculus, UniProt P23979, G148A); test: [^3H]granisetron saturation binding, G147A receptor
T6 sequence (P23979 24-483 isoform P23979-2 G148A): T1 sequence (P23979 24-483 isoform P23979-2 Y153A) with G125A, A130Y

Bmax [1]: 0.59 ± .10 pmol/mg protein
decrease in binding affinity (increased Kd), mutant vs wildtype ([2]; E148A vs wildtype): 5.3 fold
Hill coefficient (n) ([2]; E148A, ± SE): 0.93 ± 0.19
Bmax [3]: 0.44 ± .08 pmol/mg protein
Bmax [4]: 0.81 ± .07 pmol/mg protein
Hill coefficient (n) [4]: 1.38 ± 0.17
Bmax [5]: 1.0 ± .16 pmol/mg protein
binding of [^3H]granisetron [6]: No detectable binding
Structure (SMILES): CN1C2CCCC1CC(NC(=O)c1nn(C)c3ccccc13)C2 (stereo not drawn) [[^3H]granisetron]
Bmax ([2]; E148A, ± SE): 5.5 pmol/mg protein and 5.5 ± 1.2 pmol/mg protein
